Article PMC10927086, “Effects of structurally distinct human HDAC6 and HDAC6/HDAC8 inhibitors against S. mansoni larval and adult worm stages” (PLOS Neglected Tropical Diseases, 2024)

Experiments:
[1] = MTT cytotoxicity assay on L929 fibroblasts; assay type: cell-based, murine; settings: mouse, compounds 100-0.78 μM, GA 10-0.078 μM, 2 independent experiments
Procedure: (§1) The NCTC clone 929 (L-929) murine fibroblast isolated from subcutaneous connective tissue (ATCC-CCL-1) were cultured in Dulbecco’s Modified Eagle Medium (DMEM) supplemented with 10 mM Hepes (pH 6.98–7.30), 1 mM l-glutamine, 100 U/ml of penicillin/streptomycin (BioWhittaker, Lonza, EuroClone SpA), and heat-inactivated 10% FBS. All cells were cultured at 37°C in a 5% CO2 humidified incubator.
(§2) The MTT method was employed as previously described to determine the viability of fibroblast cell lines. Briefly, cells seeded into 96-well plates at a density of 20,000 cells/well after overnight incubation, were exposed to selected compounds at the indicated concentrations for 24–72 h. Next they were gently washed, incubated with MTT (bromuro di 3-(4,5-dimetiltiazol-2-il)-2,5-diphenyltetrazolium) for 4 h, and processed for color detection with DMSO. The resulting purple solution was spectrophotometrically measured at 570 nm using a Varioskan Lux instrument and Skanit software (Thermo Fisher Scientific).
(§3) The optical density values for both assays were expressed as a percentage of cell survival and normalized with the value of cells treated with vehicle (DMSO), and the data were analyzed using GraphPad Prism v9.5.1 software (San Diego, CA, USA).
(§4) The cytotoxicity of the hit compounds was assessed in two independent experiments on murine L929 and human BJ fibroblasts at 24 h by MTT assays. Vehicle (DMSO) and Gambogic acid (GA) were used as negative and positive control respectively. The compounds show a safe profile on both cell lines (S2 Table).
(§5) The IC50(μM) shown was calculated by dose-response curves of the compounds on murine L929 and human BJ fibroblast cells. […] The data are representative of 2 independent experiments. Gambogic acid (GA) and vehicle (DMSO) were used as positive and negative controls respectively. (DOCX)

[2] = MTT cytotoxicity assay on BJ fibroblasts; assay type: cell-based; settings: human, compounds 100-0.78 μM, GA 10-0.078 μM, 2 independent experiments
Procedure: as §1, §2, §3, §4, §5

[3] = tested on: S. mansoni eggs laid by worm pairs; test: Egg counts and egg maturation staging (Vogel and Prata) in vitro; assay type: cell-based, Schistosoma mansoni; settings: exp4
From the text: The eggs produced by worm pairs in vitro were counted at day 3 upon treatment using an inverted Leica DM IL microscope (Leica Microsystems, Wetzlar, Germany). Images were captured with a BX41 Olympus (Olympus, Tokyo, Japan) microscope and a brightfield objective 10× served by an Olympus DP23 microscope digital camera and visualized using “CellSens Entry” software (version 3.1.1). Egg maturation morphological score was assigned based on the Vogel and Prata’s staging system of egg maturation previously reported.
Therefore at 72 h upon worm pairs treatment the eggs were counted and classified by microscopic observation according to the Vogel and Prata staging system of egg maturation and grouped as immature (stages I and II), intermediate/developed (stages III–V), viable or damaged eggs.
Panel B. Histograms represent the percentages of eggs at different maturation stages +/- SEM counted at 72 h after treatment; 5–6 microscopy images of at least 3 independent experiments were analyzed. Filled red triangles indicate viable eggs at stages I–II (immature); empty red triangles indicate damaged/morphological abnormal eggs at stages I–II (immature); filled red arrows indicate viable eggs at stages III–V (intermediate/developed); empty red arrows indicate damaged/morphological abnormal eggs at stages III-V; ef, egg fragments; sp, sperm cells; oc, oocyte. Scale Bars = 200 μm.

## CC(C)=CCC[C@]1(C)C=Cc2c(O)c3c(c(CC=C(C)C)c2O1)O[C@]12C(=C[C@@H]4C[C@H]1C(C)(C)O[C@@]2(C/C=C(/C)C(=O)O)C4=O)C3=O [GA, Gambogic acid, reference compound]
[1]
  IC50 at 24 h: 500 nM
[2]
  IC50 at 24 h: 350 nM

## CC(/C=C/C(=O)NO)=C\[C@@H](C)C(=O)c1ccc(N(C)C)cc1 [TSA, Trichostatin A, reference compound]
[3]
  % Stage I/II damaged: 100.0%
  % Stage I/II viable: 0.0%
  %Stage II/IV/V viable: 0.0%
  %Stage III/IV/V damaged: 0.0%
  Stage I/II damaged counts: 1431
  Stage I/II viable (egg counts): 0
  Stage II/IV/V viable (egg counts): 0
  Stage III/IV/V damaged (egg counts): 0
  egg counts: 1431
